Assay results published in patent US11891386B2, “Indole compounds and their use” (ARIAGEN, INC., priority 2017, dated 2024).
Like-named read-outs stand apart in the source and are kept apart here.

How the values were obtained:
[1] = test system: EMT-6 syngeneic mouse tumor model (breast cancer); assay: Anti-tumor activity, EMT-6 syngeneic mouse tumor model; assay type: in vivo; details: for anti-tumor potency, in words / tumor growth and survival, in words / complete tumor regression (CR): EMT-6 model; for anti-tumor potency, in words / tumor growth and survival, in words: 40 mpk
Procedure: (§1) This example describes in vivo studies that evaluated the anti-cancer efficacy of the disclosed indole compounds in syngeneic mouse tumor models. Mice implanted subcutaneously with four types of cancer cells were treated with test indole compounds or vehicle controls as described below.
(§2) A monolayer culture of tumor cells was maintained in vitro in DMEM or RPMI1640 medium supplemented with 10% fetal bovine serum at 37° C. in an atmosphere of 5% CO2. Cells in exponential growth phase were harvested and quantitated by cell counter before tumor inoculation. The cell lines used are described in the table below.
(§3) Four subcutaneous syngeneic mouse tumor models were generated by innoculating female BALB/C or C57BL/6 mice with cancer cells at their right lower or front flank as detailed in the table below:
(§4) Each mouse was inoculated subcutaneously with tumor cells in 0.1 mL of PBS. Treatments were started when the mean tumor size reached approximately 80-120 mm^3 (around 100 mm^3). The administration of the indole compounds and the animal number in each study group are shown in the study design. The date of tumor cell inoculation was denoted as day 0.
(§5) The indole compounds were dissolved in DMSO at the final concentration of 26.7 mg/ml and stored at room temperature.
(§6) Randomization of animals was started when the mean tumor size reached approximately 90 mm^3 to form the mouse study groups. The randomization was performed based on “Matched distribution” method using the multi-task method (StudyDirector™ software, version 3.1.399.19)/randomized block design. The mouse groups (ten in each group) were treated with vehicle (DMSO) or the indole compounds at a dose of 40 mg/kg by i.p. injection, QD for 28 days or longer.
(§7) After tumor cell inoculation, the mice were checked daily for morbidity and mortality. During routine monitoring, the mice were checked for tumor growth and any effects of the treatment on behavior such as mobility, food and water consumption, body weight gain/loss (body weights were measured twice per week after randomization), eye/hair matting, and any other abnormalities. Mortality and observed clinical signs were recorded for individual mice in detail.
(§8) Tumor volumes were measured twice per week in two dimensions using a caliper, and the volume was expressed in mm^3 using the formula: V=(L×W×W)/2, where V is tumor volume, L is tumor length (the longest tumor dimension) and W is tumor width (the longest tumor dimension perpendicular to L). Dosing as well as tumor and body weight measurements was conducted in a Laminar Flow Cabinet. The body weights and tumor volumes were measured by using StudyDirector™ software (version 3.1.399.19). Dosing Holiday
Tumor growth inhibition percentage (TGI %) is an indicator for antitumor activity of a drug compound, and expressed as: TGI (%)=100×(1−T/C), where T and C are the mean tumor volume (or weight) of the treated and control groups, respectively, on a given day. Statistical analysis of the difference in mean tumor volume (MTV) among the groups was conducted using the data collected on the day when the MTV of the vehicle group reached the humane endpoints, so that TGI could be derived for all or most mice enrolled in the study.
In Studies 1 and 3, the anti-tumor activity of ARI-001 in parallel with ARI-002 at 160 mg/kg (mpk), and the anti-tumor activity of ARI-087 in parallel with ARI-002 at 40 mpk were assessed using the EMT-6, Pan02, A20, and LL/2 models. Because EMT-6 provides a fast-growing model that enables relatively quick differentiation of performance between compounds, this syngeneic mouse tumor model was chosen for the other studies. In Study 2, the anti-tumor activity of ARI-002 was compared with that of ARI-004 at 10, 40, and 80 mpk. In Study 4, the anti-tumor activity of ARI-087 was compared with that of ARI-140. In Study 5, the anti-tumor activity of ARI-087 was evaluated in parallel with ARI-143 and ARI-149 at 40 mpk. […]

[2] = test system: CYP1A1 in human HepG2 cells; assay: EROD assay (7-ethoxy-resorufin-O-deethylase), human HepG2 cells; assay type: cell-based; design: key to activity group based on EC50 values, in the order of increasing activity: (1) active; (2) more active; (3) most active; details: for activity group based on EC50 values, in the order of increasing activity: oxadiazole derivatives of ITE; for activity in the human EROD assay compared to ARI-001 / ARI-002, in words / EC50: human HepG2 cells; for EC50: EROD assay, 20 hours treatment
Procedure: CYP1A1 induction is under the control of the AhR signaling pathway. This Example describes an in vitro assay (7-ethoxy-resorufin-O-deethylase (EROD) assay) that evaluated the AhR modulating activities of the indole compounds described herein. In this assay, the indole compounds were incubated with human HepG2 cells or mouse Hepal-6 cells. The activity of CYP1A1 in the cells was measured by the conversion of substrate 7-ethoxyresorufin, with the readout being a fluorescence signal associated with the conversion product. The EC50 values of the indole compounds as well as the maximum […] induced by them in the assay were determined.
Human HepG2 cells were obtained from Sigma Aldrich (Catalog 85011430-1VL). Mouse Hepal-6 cells also were obtained from Sigma Aldrich (Catalog 92110305-1V).
Human HepG2 and Mouse Hepal-6 cells were grown to 60-80% confluency in tissue culture flasks, lifted with non-enzymatic cell dissociation solution (cell stripper), seeded in a 384-well plate at 5,000 cells per well, treated with the test compounds, and incubated for 20 hours overnight at 37° C. The treatment medium was removed and a solution of substrate 7-ethoxyresorufin (ETX) was added to initiate the reaction. The plate was incubated at 37° C. for 30 minutes. The reaction was subsequently terminated by adding tempered methanol. Fluorescent emission was measured at 590 nm with excitation at 530 nm in a FLEXSTATION III instrument (Molecular Devices).

[3] = In vivo pharmacokinetic study in Sprague-Dawley rats; details: rat; for bioavailability: Sprague-Dawley, plasma, po, 10 mg/kg; for % of Hepatisc Blood Flow: IV (2 mg/kg); for IV PK profile compared to ARI-001, ARI-002, and ARI-004, in words / IV AUCinf, times higher than ARI-002 / plasma clearance, % of that of ARI-002: IV
Procedure: This example describes pharmacokinetic (PK) studies of the various indole compounds described herein in rats, a rodent species widely used for pre-clinical toxicology evaluation. In the present studies, the test compounds were given to groups of Sprague-Dawley rats (N=3 in each group) intravenously (IV) at 2 mg/kg or orally (PO) at 10 mg/kg. IV doses were formulated in DMSO, while PO doses were formulated in a 50/50 mixture of PEG400 and Tween 80. Blood samples were collected at pre-dose and over a period of 24 hours post-dose. Plasma concentrations of the indole compounds were determined by HPLC.

[4] = test system: Pan02 syngeneic mouse tumor model (pancreatic cancer); assay: Anti-tumor activity, Pan02 syngeneic mouse tumor model; assay type: in vivo
Procedure: as §1, §2, §3, §4, §5
Randomization of animals was started when the mean tumor size reached approximately 90 mm^3 to form the mouse study groups. […]
as §7
Tumor volumes were measured twice per week in two dimensions using a caliper, and the volume was expressed in mm^3 using the formula: V=(L×W×W)/2, where V is tumor volume, L is tumor length (the longest tumor dimension) and W is tumor width (the longest tumor dimension perpendicular to L). […] The body weights and tumor volumes were measured by using StudyDirector™ software (version 3.1.399.19). […]
(§9) Tumor growth inhibition percentage (TGI %) is an indicator for antitumor activity of a drug compound, and expressed as: TGI (%)=100×(1−T/C), where T and C are the mean tumor volume (or weight) of the treated and control groups, respectively, on a given day. […]
In Studies 1 and 3, the anti-tumor activity of ARI-001 in parallel with ARI-002 at 160 mg/kg (mpk), and the anti-tumor activity of ARI-087 in parallel with ARI-002 at 40 mpk were assessed using the EMT-6, Pan02, A20, and LL/2 models. […]

[5] = test system: LL/2 syngeneic mouse tumor model (lung cancer); assay: Anti-tumor activity, LL/2 syngeneic mouse tumor model; assay type: in vivo; details: D28
Procedure: as §1, §2, §3, §4, §5, §6, §7, §8, §9
(§10) In Studies 1 and 3, the anti-tumor activity of ARI-001 in parallel with ARI-002 at 160 mg/kg (mpk), and the anti-tumor activity of ARI-087 in parallel with ARI-002 at 40 mpk were assessed using the EMT-6, Pan02, A20, and LL/2 models. […] In Study 5, the anti-tumor activity of ARI-087 was evaluated in parallel with ARI-143 and ARI-149 at 40 mpk. […]

[6] = test system: A20 syngeneic mouse tumor model (B cell lymphoma); assay: Anti-tumor activity, A20 syngeneic mouse tumor model; assay type: in vivo
Procedure: as §1, §2, §3, §4, §5, §6, §7, §8, §9, §10

hepatocytes = assay: Metabolite analysis in hepatocytes by high-resolution mass spectrometry; assay type: in vitro ADME; details: preliminary studies
Description: It remains unclear whether halogen substitutions at the indole ring impact the activity and metabolic profiles of the indole compounds described herein.

[7] = PO (10 mg/kg) vs IV (2 mg/kg), read-out: F % (bioavailability)
[8] = Mus musculus, EMT6, ip, 720 h, Study 5, EMT-6, 40 mpk i.p. QD, D30, read-out: TGI (tumor growth inhibition)

Nc1nnc(-c2csc(C(=O)c3c[nH]c4c(F)cccc34)n2)o1 [ARI-118, (4-(5-amino-1,3,4-oxadiazol-2-yl)thiazol-2-yl)(7-fluoro-1H-indol-3-yl)methanone]
anti-tumor potency, in words [1]: superior anti-tumor activity than ARI-087 | tumor growth and survival, in words [1]: delay tumor growth and prolong survival | complete tumor regression (CR) ([1]; Study 4, by day 46): 1 out of 10 | inhibition in vivo at 40 mg/kg ([1]; Mus musculus, EMT6, ip, 672 h, Study 4, EMT-6, 40 mpk i.p. QD, D28, read-out: TGI (tumor growth inhibition)): 54.5% | times more active than ARI-001 ([2]; human EROD assay): about 930 times | times more active than ARI-002 ([2]; human EROD assay): about 13 times | activity group based on EC50 values, in the order of increasing activity ([2]; human EROD assay): most active | activity in the human EROD assay compared to ARI-001 / ARI-002, in words [2]: significantly more (about 4 to 900 times more) active than ARI-001 | bioavailability [3, 7]: 0.2% | IV PK profile compared to ARI-001, ARI-002, and ARI-004, in words [3]: improved IV PK profiles | % of Hepatisc Blood Flow [3]: 17%

COC(=O)c1csc(C(=O)c2c[nH]c3ccccc23)n1 [ARI-001, ITE]
TGI (tumor growth inhibition) ([4]; Study 1, Pan02, 160 mpk, D28): 74.2% D28 | inhibition in vivo at 160 mg/kg ([1]; Mus musculus, EMT6, 648 h, Study 1, EMT-6, 160 mpk, D27, read-out: TGI (tumor growth inhibition)): 53% | TGI (tumor growth inhibition) ([5]; Study 1, LL/2, 160 mpk): 65.1% D28 | TGI (tumor growth inhibition) ([6]; Study 1, A20, 160 mpk, D26): 54.5% D26 | EC50 [2]: 28.9 nM | bioavailability [3, 7]: 0.4% | % of Hepatisc Blood Flow [3]: 289%

CNC(=O)c1csc(C(=O)c2c[nH]c3ccccc23)n1 [ARI-004]
inhibition in vivo at 10 mg/kg ([1]; Mus musculus, EMT6, 648 h, Study 2, EMT-6, 10 mpk, D27, read-out: TGI (tumor growth inhibition)): -38.2% | inhibition in vivo at 40 mg/kg ([1]; Mus musculus, EMT6, 648 h, Study 2, EMT-6, 40 mpk, D27, read-out: TGI (tumor growth inhibition)): 0.3% | inhibition in vivo at 80 mg/kg ([1]; Mus musculus, EMT6, 648 h, Study 2, EMT-6, 80 mpk, D27, read-out: TGI (tumor growth inhibition)): 15.8% | activity in the human EROD assay compared to ARI-001 / ARI-002, in words [2]: less active | bioavailability [3, 7]: 33.6% | % of Hepatisc Blood Flow [3]: 189%

CCC(=O)c1csc(C(=O)c2c[nH]c3cc(F)ccc23)n1 [ARI-143, 1-(2-(6-fluoro-1H-indole-3-carbonyl)thiazol-4-yl)propan-1-one]
anti-tumor potency, in words [1]: most potent ketone derivative | tumor growth and survival, in words [1]: delay tumor growth and prolong survival | complete tumor regression (CR) ([1]; Study 5, by day 51): 2 out of 10 | inhibition in vivo at 40 mg/kg [1, 8]: 65.9% | primary metabolites of the indole ring identified (hepatocytes): fewer primary metabolites of the indole ring | EC50 [2]: 4.2 nM | bioavailability [3, 7]: 19.3% | IV AUCinf, times higher than ARI-002 [3]: 1.5 times | plasma clearance, % of that of ARI-002 [3]: 74% | % of Hepatisc Blood Flow [3]: 19% | PO AUCinf, times higher than that of ARI-002 ([3]; PO): 2.6 times | absolute oral bioavailability, times higher than ARI-002 ([3]; PO): 1.8 times

Nc1nnc(-c2csc(C(=O)c3c[nH]c4ccccc34)n2)o1 [ARI-083, (4-(5-amino-1,3,4-oxadiazol-2-yl)thiazol-2-yl)(1H-indol-3-yl)methanone]
TGI (tumor growth inhibition) ([4]; Study 3, Pan02, 40 mpk i.p. QD, D60): 2.7% D60 | inhibition in vivo at 40 mg/kg ([1]; Mus musculus, EMT6, ip, 648 h, Study 3, EMT-6, 40 mpk i.p. QD, D27, read-out: TGI (tumor growth inhibition)): 21.2% | TGI (tumor growth inhibition) ([5]; Study 3, LL/2, 40 mpk i.p. QD): 24.0% D28 | TGI (tumor growth inhibition) ([6]; Study 3, A20, 40 mpk i.p. QD, D28): 22% D28 | activity group based on EC50 values, in the order of increasing activity ([2]; human EROD assay): more active | activity in the human EROD assay compared to ARI-001 / ARI-002, in words [2]: significantly more (about 4 to 900 times more) active than ARI-001 | bioavailability [3, 7]: 1% | IV PK profile compared to ARI-001, ARI-002, and ARI-004, in words [3]: improved IV PK profiles | % of Hepatisc Blood Flow [3]: 45%

CCC(=O)c1csc(C(=O)c2c[nH]c3cc(F)c(F)cc23)n1 [ARI-149, 1-(2-(5,6-difluoro-1H-indole-3-carbonyl)thiazol-4-yl)propan-1-one]
inhibition in vivo at 40 mg/kg [1, 8]: 42.7% | EC50 [2]: 19.2 nM | bioavailability [3, 7]: 6.8% | bioavailability ([3]; PO, read-out: absolute oral bioavailability, % of ARI-002): 62% | IV AUCinf, times higher than ARI-002 [3]: 2.3 times | plasma clearance, % of that of ARI-002 [3]: 50% | % of Hepatisc Blood Flow [3]: 13% | PO AUCinf, times higher than that of ARI-002 ([3]; PO): about 1.4 times
